pIC50: −log10 of the molar value.
Key:
11b-HSD2 [1] = biological target: T1, 11b-HSD2 (Homo sapiens, UniProt P80365); test: Cellular assay, 11b-HSD2 activity in HepG2 cells; type: cell-based; design: endogenous in cells; host or cells: HepG2 (ATCC HB-8065); details: 4 hour pre-incubation; for pIC50: pIC50 scored 1-3, read-out: [C2] HSD2 cellular HepG2 Score
T1 sequence (P80365 1-405): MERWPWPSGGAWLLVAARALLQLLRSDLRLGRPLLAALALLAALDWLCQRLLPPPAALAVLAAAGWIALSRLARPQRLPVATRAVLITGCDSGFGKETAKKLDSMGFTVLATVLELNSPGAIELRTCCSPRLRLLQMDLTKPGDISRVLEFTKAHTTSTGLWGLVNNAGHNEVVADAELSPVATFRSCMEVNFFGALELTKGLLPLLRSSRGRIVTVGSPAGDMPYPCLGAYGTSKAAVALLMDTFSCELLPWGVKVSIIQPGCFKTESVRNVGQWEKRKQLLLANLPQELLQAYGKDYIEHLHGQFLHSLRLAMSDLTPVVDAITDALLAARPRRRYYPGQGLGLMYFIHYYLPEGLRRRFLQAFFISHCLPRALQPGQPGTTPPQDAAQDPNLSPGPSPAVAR
Procedure: The effects on 11b-HSD2 activity was studied in HepG2 and LCC-PK1-cells HepG2-cells (ATCC HB-8065) were seeded in 12 well plates at a density of 100,000 cells/ml and grown at 37 C in a humidified 5% CO2 atmosphere in MEM-Rega-3 medium supplemented with 10% heat inactivated foetal calf serum, 2 mM L-glutamine and sodium bicarbonate). Medium was refreshed twice a week. Pig kidney cells (LCC-PK1, ATCC CRL-1392) were seeded at a density of 150,000 cells/ml in 12 well plates and grown at 37 C in a humidified 5% CO2 atmosphere in Medium 199 supplemented with Earls modified salt solution, 100 U/ml penicillin, 100 μg/ml streptomycin and 10% foetal calf serum. Medium was refreshed twice a week. Twenty four hours prior to the onset of the experiment, medium was changed by medium containing 10% charcoal stripped foetal calf serum.
Following a 4 hour pre-incubation with test compound, 0.5 μCi ^3H-cortisol or corticosterone, was added to the cultures. One hour later, the medium was extracted on Extrelut^3-columns with 15 ml diethyl ether and the extract was analysed by HPLC as described above.
(§1) As for the enzymatic assays, the compounds to be tested were taken from a stock solution and tested at a final concentration ranging from […] to 3.10^−9M. From the thus obtained dose response curves, the pIC50 value was calculated and scored as follows; Score 1=pIC50 value<5, Score 2=pIC50 value in the range of 5 to 6, Score 3=pIC50 value>6. (in this table NT stands for Not Tested).

11b-HSD1 [2] = biological target: 11b-HSD1 (Homo sapiens, UniProt P28845); test: Enzymatic assay, 11b-HSD1 reductase activity (conversion of cortisone into cortisol); type: biochemical; details: pIC50 scored 1-3, read-out: [C1] HSD1-prot Reduct Score
Procedure: The effects of compounds on 11b-HSD1 dependent conversion of cortisone into cortisol (reductase activity) was studied in a reaction mixture containing 30 mM Tris-HCl buffer pH 7.2, 180 μM NADPH, 1 mM EDTA, 2 μM cortisone, 1 μl drug and/or solvent and 11 μg recombinant protein in a final volume of 100 μl.
(§2) All incubations were performed for 45 min at 37 C in a water bath. The reaction was stopped by adding 100 μl acetonitrile containing 20 μg corticosterone as internal standard. After centrifugation, the product formation was analysed in the supernatant by HPLC on a Hypersyl BDS-C18 column using 0.05 mM ammonium acetate/methanol (50/50) as solvent. In all of the aforementioned assays, the drugs to be tested were taken from a stock solution and tested at a final concentration ranging from […] to 3.10^−9M. From the thus obtained dose response curves, the pIC50 value was calculated and scored as follows; Score 1=pIC50 value<5, Score 2=pIC50 value in the range of 5 to 6, Score 3=pIC50 value>6. (in this table NT stands for Not Tested).

11b-HSD1 [3] = biological target: T2, 11b-HSD1 (Mus musculus, UniProt P50172); test: Cellular assay, 11b-HSD1 activity in differentiated 3T3-L1 cells; type: cell-based; details: 4 hour pre-incubation; for pIC50: pIC50 scored 1-3, read-out: [C2] HSD1 cellular 3T3-L1 Score
T2 construct: endogenous in cells; host or cells: 3T3-L1 (ATCC-CL-173), differentiated into adipocytes
Procedure: The effects on 11b-HSD1 activity was measured in differentiated 3T3-L1 cells and rat hepatocytes.
Mouse fibroblast 3T3-L1 cells (ATCC-CL-173) were seeded at a density of 16500 cells/ml in 12 well plates and grown for 7 days in DMEM medium (supplemented with 10% heat inactivated foetal calf serum, 2 mM glutamine and 25 mg gentamycin) at 37 C in a humidified 5% CO2 atmosphere. Medium was refreshed twice a week. Fibroblasts were differentiated into adipocytes at 37 C in a 5% CO2 humidified atmosphere in growth medium containing 2 μg/ml insulin, 55 μg/ml IBMX and 39.2 μg/ml dexamethasone.
Following a 4 hour pre-incubation with test compound, 0.5 μCi ^3H-cortisone or dehydrocorticosterone, was added to the cultures. One hour later, the medium was extracted on Extrelut^3-columns with 15 ml diethyl ether and the extract was analysed by HPLC as described above.
as §1

11b-HSD2 [4] = biological target: T1, 11b-HSD2; test: Enzymatic assay, 11b-HSD2 dependent dehydrogenase activity; type: biochemical; details: 11b-HSD2 dehydrogenase activity, pIC50 scored 1-3, read-out: [C1] HSD2 prot Dehydro Score
Procedure: The effects on the 11b-HSD2 dependent dehydrogenase activity was studied in a reaction mixture containing 0.1M sodium phosphate buffer pH 7.5, 300 μM NAD, 100 nM cortisol (of which 2 nM is 3H-radio labelled), 1 μl drug and/or solvent and 2.5 μg recombinant protein in a final volume of 100 μl.
as §2

T2 sequence (P50172 whole entry): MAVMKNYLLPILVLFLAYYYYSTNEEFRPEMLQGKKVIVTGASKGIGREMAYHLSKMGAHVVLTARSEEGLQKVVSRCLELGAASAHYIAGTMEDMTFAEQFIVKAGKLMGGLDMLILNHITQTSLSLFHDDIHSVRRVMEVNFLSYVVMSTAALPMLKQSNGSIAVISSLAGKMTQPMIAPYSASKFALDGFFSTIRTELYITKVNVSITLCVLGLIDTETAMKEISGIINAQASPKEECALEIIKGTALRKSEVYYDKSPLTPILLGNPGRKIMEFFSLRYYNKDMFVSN
Chain of 11b-HSD1 (Homo sapiens, UniProt P28845) (P28845 whole entry): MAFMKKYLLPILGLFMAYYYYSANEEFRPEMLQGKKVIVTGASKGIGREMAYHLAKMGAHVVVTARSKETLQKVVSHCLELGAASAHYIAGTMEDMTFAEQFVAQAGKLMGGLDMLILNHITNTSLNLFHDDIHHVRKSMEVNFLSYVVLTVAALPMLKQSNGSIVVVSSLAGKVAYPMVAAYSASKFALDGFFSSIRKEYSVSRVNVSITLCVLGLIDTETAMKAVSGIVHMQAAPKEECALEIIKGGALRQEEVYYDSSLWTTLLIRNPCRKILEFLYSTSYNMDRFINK

| SMILES | pIC50 (11b-HSD2 [1]) | pIC50 (11b-HSD1 [2]) | pIC50 (11b-HSD1 [3]) | [C2] HSD2 cellular HepG2 Score (11b-HSD2 [1]; pIC50 scored 1-3) | [C2] HSD1 cellular 3T3-L1 Score (11b-HSD1 [3]; pIC50 scored 1-3) | pIC50 (11b-HSD2 [4]) |
| --- | --- | --- | --- | --- | --- | --- |
| CC1CCCCC1NC(=O)C1(c2ccccc2)CC1 (stereo not shown) [Compound 19] | < 5.00 | – | 5.00 to 6.00 | – | – | < 5.00 |
| O=C(Cc1ccccc1)NC1C2CC3CC(C2)CC1C3 (stereo not shown) [Compound 30] | < 5.00 | – | > 6.00 | – | – | – |
| CC1C(NC(=O)C2(c3ccccc3)CC2)CC2CC1C2(C)C (stereo not shown) [Compound 56] | < 5.00 | – | 5.00 to 6.00 | – | – | < 5.00 |
| CC(C)(C(=O)NC1C2CC3CC(C2)CC1C3)c1ccc(Cl)cc1 (stereo not shown) [Compound 1] | < 5.00 | – | > 6.00 | – | – | < 5.00 |
| CC(C)(C(=O)NC1CCCCCCC1)c1ccccc1 [Compound 46] | < 5.00 | < 5.00 | > 6.00 | – | – | < 5.00 |
| O=C(NCC12CC3CC(CC(C3)C1)C2)C1(c2ccccc2)CCCC1 [Compound 35] | < 5.00 | – | 5.00 to 6.00 | – | – | < 5.00 |
| CN(C)CCOc1cccc(C(C)(C)C(=O)NC2C3CC4CC(C3)CC2C4)c1 (stereo not shown) [Compound 7] | < 5.00 | < 5.00 | > 6.00 | – | – | – |
| O=C(NC12CC3CC(CC(C3)C1)C2)C1(c2ccccc2)CCC1 [Compound 16] | < 5.00 | – | 5.00 to 6.00 | – | – | < 5.00 |
| CC1(C)C2CCC1(C)C(NC(=O)C1(c3ccccc3)CC1)C2 (stereo not shown) [Compound 55] | < 5.00 | – | > 6.00 | – | – | < 5.00 |
| O=C(NCC12CC3CC(CC(C3)C1)C2)C1(c2ccccc2)CC1 [Compound 31] | < 5.00 | – | > 6.00 | – | – | < 5.00 |
| CC(C(=O)NC1C2CC3CC(C2)CC1C3)c1ccccc1 (stereo not shown) [Compound 28] | < 5.00 | – | > 6.00 | – | – | – |
| Cc1cc(C)cc(C(C)(C)C(=O)NC2C3CC4CC(C3)CC2C4)c1 (stereo not shown) [Compound 3] | < 5.00 | > 6.00 | > 6.00 | – | – | – |
| CCC(C(=O)NC1C2CC3CC(C2)CC1C3)c1ccccc1 (stereo not shown) [Compound 29] | < 5.00 | – | > 6.00 | – | – | – |
| CC1(C)C2CCC1(C)C(NC(=O)C1(c3ccccc3)CCCC1)C2 (stereo not shown) [Compound 57] | < 5.00 | – | 5.00 to 6.00 | – | – | < 5.00 |
| O=C(NC1CC2CCC1C2)C1(c2ccccc2)CC1 (stereo not shown) [Compound 64] | < 5.00 | – | 5.00 to 6.00 | – | – | < 5.00 |
| O=C(NC1CC2CCC1C2)C1(c2ccccc2)CCCC1 (stereo not shown) [Compound 22] | < 5.00 | – | 5.00 to 6.00 | – | – | < 5.00 |

Further lines, results first:

| pIC50 (11b-HSD2 [1]) | pIC50 (11b-HSD1 [2]) | pIC50 (11b-HSD1 [3]) | [C2] HSD2 cellular HepG2 Score (11b-HSD2 [1]; pIC50 scored 1-3) | [C2] HSD1 cellular 3T3-L1 Score (11b-HSD1 [3]; pIC50 scored 1-3) | pIC50 (11b-HSD2 [4]) | SMILES |
| --- | --- | --- | --- | --- | --- | --- |
| < 5.00 | > 6.00 | 5.00 to 6.00 | – | – | – | CN(Cc1ccccc1)c1ccc(C(C)(C)C(=O)NC2C3CC4CC(C3)CC2C4)cc1 (stereo not shown) [Compound 81] |
| < 5.00 | > 6.00 | > 6.00 | – | – | – | COC12CC3CC(C1)C(NC(=O)C(C)(C)c1ccccc1)C(C3)C2 (stereo not shown) [Compound 109] |
| – | < 5.00 | – | 1 (Score 1=pIC50 value<5) | 3 (Score 3=pIC50 value>6) | – | COc1ccc(OC)c(C(C)(C)C(=O)NC2C3CC4CC(C3)CC2C4)c1 (stereo not shown) [Compound 154] |
| < 5.00 | < 5.00 | > 6.00 | – | – | < 5.00 | O=C(NC1C2CC3CC(C2)CC1C3)C1CCc2ccccc21 (stereo not shown) [Compound 197] |
| < 5.00 | > 6.00 | > 6.00 | – | – | < 5.00 | Cc1cccc(C(C)(C)C(=O)NC2C3CC4CC(C3)CC2C4)c1 (stereo not shown) [Compound 89] |
| < 5.00 | – | > 6.00 | – | – | < 5.00 | O=C(NC1C2CC3CC(C2)CC1C3)[C@H]1Cc2ccccc2CN1 (stereo partly shown) [Compound 255] |
| < 5.00 | > 6.00 | > 6.00 | – | – | < 5.00 | O=C(N[C@H]1[C@@H]2CC3C[C@H]1C[C@](O)(C3)C2)C1CCc2ccccc2C1 (stereo partly shown) [Compound 243] |
| < 5.00 | < 5.00 | > 6.00 | – | – | 5.00 to 6.00 | CNc1cccc(C(C)(C)C(=O)NC2C3CC4CC(C3)CC2C4)c1 (stereo not shown) [Compound 77] |
| < 5.00 | < 5.00 | > 6.00 | – | – | < 5.00 | CC(C)(C(=O)NC1C2CC3CC(C2)CC1C3)c1ccsc1 (stereo not shown) [Compound 133] |
| < 5.00 | – | > 6.00 | – | – | < 5.00 | O=C(NC1C2CC3CC(C2)CC1C3)C1CCc2ccccc2N1 (stereo not shown) [Compound 253] |
| < 5.00 | > 6.00 | > 6.00 | – | – | < 5.00 | O=C(NC1C2CC3CC(C2)CC1C3)C1Cc2ccccc21 (stereo not shown) [Compound 177] |
| < 5.00 | < 5.00 | > 6.00 | – | – | < 5.00 | Cc1cc(C)c2c(c1)C(C(=O)NC1C3CC4CC(C3)CC1C4)=CCC2 (stereo not shown) [Compound 181] |
| < 5.00 | 5.00 to 6.00 | > 6.00 | – | – | < 5.00 | CC(C)(C(=O)N[C@H]1[C@@H]2CC3C[C@H]1C[C@](F)(C3)C2)c1cccc(CCC(=O)O)c1 [Compound 217] |
| < 5.00 | > 6.00 | > 6.00 | – | – | < 5.00 | COc1cccc2c1OCC=C2C(=O)NC1C2CC3CC(C2)CC1C3 (stereo not shown) [Compound 171] |
| < 5.00 | < 5.00 | > 6.00 | – | – | – | CC(C)(C(=O)NC1C2CC3CC(C2)CC1C3)c1ccc(Cl)cc1Cl (stereo not shown) [Compound 106] |
| < 5.00 | > 6.00 | > 6.00 | – | – | < 5.00 | CC(C)(C(=O)NC1C2CC3CC(C2)CC1C3)c1cccc(CCC(=O)O)c1 (stereo not shown) [Compound 196] |
| < 5.00 | > 6.00 | > 6.00 | – | – | < 5.00 | O=C(NC1C2CC3CC(C2)CC1C3)C1CCSc2ccccc21 (stereo not shown) [Compound 182] |
| < 5.00 | 5.00 to 6.00 | > 6.00 | – | – | < 5.00 | CC(=CC(=O)NC1C2CC3CC(C2)CC1C3)c1ccccc1 (stereo not shown) [Compound 153] |
| < 5.00 | > 6.00 | > 6.00 | – | – | – | COc1ccc(OC)c(C(C)(C)C(=O)NC2C3CC4CC(C3)CC2C4)c1 (stereo not shown) [Compound 93] |
| < 5.00 | > 6.00 | > 6.00 | – | – | – | CC(C)(C(=O)NC1C2CC3CC(C2)CC1C3)c1cccc(OCCN2CCCC2)c1 (stereo not shown) [Compound 71] |
| < 5.00 | < 5.00 | > 6.00 | – | – | – | CC(C)(C(=O)NC1C2CC3CC(C2)CC1C3)c1cc(F)cc(F)c1 (stereo not shown) [Compound 95] |

— patent publication US7968601B2, “Adamantyl acetamides as 11-β hydroxysteroid dehydrogenase inhibitors” (Janssen Pharmaceutica N.V., priority 2002, dated 2011)
